Measurements as given in patent publication US4581460A, “Substituted 1-benzoyl-2-phenyliminoimidazolidine derivatives” (Chemie Linz Aktiengesellschaft, priority 1982, dated 1986).

Tested on: phenyl-p-quinone-induced writhing syndrome of the mouse
Test: Writhing test (phenyl-p-quinone-induced writhing syndrome of the mouse)
Type: in vivo
Details: Mus musculus; oral, 60 min before i.p. phenyl-p-quinone; dose protecting 50% of the animals; read-out: ED50 (antiwrithing potency)
Description: 60 minutes after oral application of the test compounds mice were injected intraperitoneally with 0.3 ml of a 0.02% phenyl-p-quinone solution in a alcohol-water mixture (1:25 v/v). After the phenyl-p-quinone injection each mouse was observed during a span of 20 minutes.
The ED50 values (antiwrithing potency) were computed according to the method of N. R. Thompsom and C. S. Weil (Biometrics 8, 1952, 51-54, 249-263). The ED50 value refers to the dose (mg of test compound/kg of mouse) protecting 50% of the animals from pain in the writhing test.

SMILES	ED50 [mg/kg]
CCOc1ccc(C(=O)N2CCNC2=Nc2c(Cl)cccc2Cl)cc1 [1-p-ethoxybenzoyl-2-(2,6-dichlorophenylimino)-imidazolidine]	0.98
O=C(c1ccc(Cl)cc1)N1CCNC1=Nc1ccc(Cl)cc1Cl [1-p-chlorobenzoyl-2-(2,4-dichlorophenylimino)-imidazolidine]	3.54
O=C(c1ccc(F)cc1)N1CCNC1=Nc1cc(Cl)ccc1Cl [1-p-fluorobenzoyl-2-(2,5-dichlorophenylimino)-imidazolidine]	10
Cc1cc(C(=O)N2CCNC2=Nc2c(Cl)cccc2Cl)ccc1[N+](=O)[O-] [1-(3-methyl-4-nitrobenzoyl)-2-(2,6-dichlorophenylimino)-imidazolidine]	0.68
CS(=O)(=O)c1ccc(C(=O)N2CCNC2=Nc2c(Cl)cccc2Cl)cc1 [1-(p-methylsulfonylbenzoyl)-2-(2,6-dichlorophenylimino)-imidazolidine]	0.75
Cc1cccc(Cl)c1N=C1NCCN1C(=O)c1ccc(F)cc1 [1-p-fluorobenzoyl-2-(2-chloro-6-methylphenylimino)imidazolidine]	1
COc1ccc(C(=O)N2CCNC2=Nc2cccc(Cl)c2Cl)cc1 [1-p-methoxybenzoyl-2-(2,3-dichlorophenylimino)-imidazolidine]	0.99
O=C(c1ccc(F)cc1)N1CCNC1=Nc1cccc(Cl)c1Cl [1-p-fluorobenzoyl-2-(2,3-dichlorophenylimino)-imidazolidine]	1.15
COc1ccc(C(=O)N2CCNC2=Nc2c(Cl)cccc2Cl)cc1OC [1-(3,4-dimethoxybenzoyl)-2-(2,6-dichlorophenylimino)-imidazolidine]	4.36
Cc1ccc(C(=O)N2CCNC2=Nc2c(Cl)cccc2Cl)cc1F [1-(3-fluoro-4-methylbenzoyl)-2-(2,6-dichlorophenylimino)-imidazolidine]	0.5
O=C(c1ccc(F)cc1)N1CCNC1=Nc1c(Cl)cccc1Cl [1-p-fluorobenzoyl-2-(2,6-dichlorophenylimino)-imidazolidine]	0.81
N#Cc1cccc(C(=O)N2CCNC2=Nc2c(Cl)cccc2Cl)c1 [1-m-cyanobenzoyl-2-(2,6-dichlorophenylimino)-imidazolidine]	0.25
CC(C)Oc1ccc(C(=O)N2CCNC2=Nc2c(Cl)cccc2Cl)cc1 [1-p-isopropoxybenzoyl-2-(2,6-dichlorophenylimino)-imidazolidine]	0.54
COc1ccc(C(=O)N2CCNC2=Nc2c(Cl)cccc2Cl)cc1 [1-p-methoxybenzoyl-2-(2,6-dichlorophenylimino)-imidazolidine]	0.63
O=C(c1cccc(F)c1)N1CCNC1=Nc1cccc(Cl)c1Cl [1-m-fluorobenzoyl-2-(2,3-dichlorophenylimino)-imidazolidine]	2.08
CCCOc1ccc(C(=O)N2CCNC2=Nc2c(Cl)cccc2Cl)cc1 [1-(p-n-propoxybenzoyl)-2-(2,6-dichlorophenylimino)-imidazolidine]	0.46
CS(=O)(=O)c1ccc(C(=O)N2CCNC2=Nc2cccc(Cl)c2Cl)cc1 [1-p-methylsulfonylbenzoyl-2-(2,3-dichlorophenylimino)-imidazolidine]	1.04
O=C(c1cccc(Cl)c1)N1CCNC1=Nc1c(Cl)cccc1Cl [1-m-chlorobenzoyl-2-(2,6-dichlorophenylimino)-imidazolidine]	0.81
O=C(c1ccc(Cl)cc1)N1CCNC1=Nc1cccc(Cl)c1Cl [1-p-chlorobenzoyl-2-(2,3-dichlorophenylimino)-imidazolidine]	1.26
COc1ccc(C(=O)N2CCNC2=Nc2c(C)cccc2Cl)cc1OC [1-(3,4-dimethoxybenzoyl)-2-(2-chloro-6-methylphenylimino)-imidazolidine]	4.42
O=C(c1ccc([N+](=O)[O-])cc1)N1CCNC1=Nc1ccc(Cl)cc1Cl [1-p-nitrobenzoyl-2-(2,4-dichlorophenylimino)-imidazolidine]	1.77

Same assay, conditions: oral, 60 min before i.p. phenyl-p-quinone; dose protecting 50% of the animals

SMILES	ED50 (antiwrithing potency)
CCCCOc1ccc(C(=O)N2CCNC2=Nc2cccc(Cl)c2Cl)cc1 [1-p-n-butoxybenzoyl-2-(2,3-dichlorophenylimino-imidazolidine]	4.49 mg of test compound/kg of mous

Same assay, conditions: po; writhing test, mouse; dose protecting 50% of the animals; read-out: ED50 in the writhing test

SMILES	ED50 [mg/kg]
N#Cc1ccc(C(=O)N2CCNC2=Nc2c(Cl)cccc2Cl)cc1 [1-p-cyanobenzoyl-2-(2,6-dichlorophenylimino)-imidazolidine]	0.55
CC(C)=CCN1CCC2(C)c3cc(O)ccc3CC1C2C (centres unmarked) [Pentazocin, reference compound]	168

Tested on: not given
Test: not given
Details: U.S. Pat. No. 4,142,051; cited from earlier work

SMILES	analgesic properties (prior art)
O=C(C1CC=CCC1)N1CCNC1=Nc1c(Cl)cccc1Cl (centres unmarked) [1-(cyclohex-3-en-1-oyl)-2-(2,6-dichlorophenylimino)-imidazolidine]	exhibit analgesic properties

Tested on: not given
Test: not given
Details: U.S. Pat. No. 3,988,345; U.S. Pat. No. 4,389,403; cited from earlier work

SMILES	antihypertensive / hypotensive effect (prior art)
O=C(c1ccccc1)N1CCNC1=Nc1c(Cl)cccc1Cl [benclonidine, 1-benzoyl-2-(2,6-dichlorophenylimino)-imidazolidine]	marked antihypertensive effect
